Experimental data published in US20020172967A1, “Identification of non-covalent complexes by mass spectrometry” (priority 2001, published 2002).
Entries after “also recorded” stand apart in the source; their conditions may differ. Like-named read-outs stand apart in the source and are kept apart here.

Experiments:
[1] = target: T1, stromelysin (catalytic domain) (Homo sapiens, UniProt P08254); experiment: ESI-MS detection of noncovalent complexes and competition experiments with stromelysin; type: binding; conditions: for specificity of association (no greater than 1:1 complex): ESI-MS; for competition of two ligands for the same binding site: pairwise ESI-MS experiment, ternary complex present or absent; for competitive / non-competitive binder or non-binder: ESI-MS competition experiments, S1′ site, same binding site as 4-phenylpyridine
T1 construct: The catalytic domain of stromelysin was prepared in accordance with well-known known procedures; made in house
T1 sequence (P08254 100-272 limits assumed): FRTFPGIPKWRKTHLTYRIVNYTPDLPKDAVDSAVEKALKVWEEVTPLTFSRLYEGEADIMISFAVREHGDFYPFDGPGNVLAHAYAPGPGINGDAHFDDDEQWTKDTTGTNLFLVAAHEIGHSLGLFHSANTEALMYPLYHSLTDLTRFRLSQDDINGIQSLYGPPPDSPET
Description: FIGS. 7A-7E are ligands that are known to bind in the S1′ site on stromelysin. […] The relative dissociation constants for each for each ligand were measured to optimize the amide. Competition experiments were also performed to assure that each ligand bound in the same binding site as 4-phenylpyridine. [drawing 41]
Acetohydroxamic acid was used as the ligand for the first binding site of stromelysin. It has been reported that complexation of zinc with acetohydroxamic acid prevents autocatalytic degradation of the protein.
The ESI-MS measurements were recorded on a Perkin Elmer Sciex API III mass spectrometer. Samples were introduced via […] i.d. fused silica capillary from a 50 μL syringe using a Harvard Apparatus Model 22-syringe pump at a flow rate of 1.500 μL/min. The orifice potential was set between 55 and 65V, and the interface heater was at 56° C. Mass spectra were obtained by averaging a sufficient number of scans to obtain adequate signal to noise.
The sample was analyzed by ESI-MS.
The catalytic domain of stromelysin was prepared in accordance with well-known known procedures. […] The stromelysin used for this study was in a solution of 20 mM Tris buffer, 5 mM CaCl2, 0.02% NaN3 at a pH of 7.5 and at a concentration of either 19.6 mg/mL or 21.7 mg/mL. Acetohydroxamic acid was used for the zinc-binding site.
The second step in the design process was the identification of a second ligand that binds to the target stromelysin at a site different from the binding site of acetohydroxamic acid. This may be accomplished by screening compounds for their ability to bind stromelysin in the presence of saturating amounts of acetohydroxamic acid.
The next step in the design process was to construct a ternary complex of the target stromelysin, the first ligand and the second ligand. This was accomplished by exposing the stromelysin target to the two ligands under conditions that result in complex formation.

[2] = target: T2, protein tyrosine phosphatase 1b (PTP1b) (Homo sapiens, UniProt P18031); experiment: ESI-MS detection of 1:1 noncovalent complex with PTP1b; type: binding; conditions: mass spectrometry; for formation of specific complex with PTP1b: 1:1 noncovalent complex
T2 sequence (P18031 1-435): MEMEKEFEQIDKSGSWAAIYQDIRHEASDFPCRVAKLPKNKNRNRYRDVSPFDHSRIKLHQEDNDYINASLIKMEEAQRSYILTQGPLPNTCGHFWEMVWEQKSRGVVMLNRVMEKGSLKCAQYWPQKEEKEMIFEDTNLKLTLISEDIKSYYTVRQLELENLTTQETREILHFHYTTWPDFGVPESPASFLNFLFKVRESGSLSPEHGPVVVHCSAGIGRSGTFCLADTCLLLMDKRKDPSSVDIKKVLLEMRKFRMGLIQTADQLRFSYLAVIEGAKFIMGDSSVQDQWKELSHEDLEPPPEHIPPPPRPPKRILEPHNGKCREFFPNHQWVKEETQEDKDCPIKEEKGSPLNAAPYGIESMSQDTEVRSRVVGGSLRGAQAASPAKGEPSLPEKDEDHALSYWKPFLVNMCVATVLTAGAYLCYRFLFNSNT
Description: (§1) The candidate target binding ligands shown below were tested by mass spectrometry in a manner similar to Example 1 to determine whether any of the fragments bound specifically to the target biomolecule, protein tyrosine phosphatase 1b (PTP1b), observed 1:1 noncovalent complex. Fragment molecules were chosen based on either their ability to mimic the stabilized transition state of PTP1b with a tyrosine phosphate ester or based on their known or suspected ability to inhibit cysteine proteases and the homology or similarities in the active sites PTP1b and cysteine proteases. The transition state mimics included in the library are derivatives of moniliformin and deltic acid. Each of these compounds contain a planar arrangement of oxygen atoms around and electrophilic center, similar to the planar arrangement of oxygen atoms around an electrophilic phosphorous in the stabilized transition state complex of phosphotyrosine and PTP1b. Also contained in the library were various examples of some fragment molecules containing functional groups known or suspected to interact with an active site cysteine of cysteine proteases. Included in this example are aldehydes, α-ketoacids, boronic acids, and […]. Other fragment molecules could contain functional groups such as α-ketoesters, sulfonyl fluorides, haloketones, azabenzenes, and disulfides and other fragment molecules that contain functional groups known or suspected to react with mercaptans. […] The ability of these fragments to block the function of PTP1b was determined by a chromagenic substrate assay.

[3] = target: T3, PTP1b (Homo sapiens, UniProt P18031); experiment: chromagenic substrate assay of PTP1b function; type: biochemical; conditions: titration curves, FIG. 4
T3 sequence (P18031 1-435): T2 sequence (P18031 1-435)
Description: FIG. 4 is a graph of titration curves used to determine the IC50 of the squaric acid fragment 8A and moniliformin.
as §1

| SMILES | specificity of association (no greater than 1:1 complex) [1] | competition of two ligands for the same binding site [1] | also measured |
| --- | --- | --- | --- |
| COc1ccc(C(=O)Nc2ccccc2)cc1 [4-methoxy-N-phenylbenzamide] | specific | compete for the same binding site on the protein |  |
| N#Cc1ccc(NC(=O)Cc2ccccc2)cc1 [N-(4-cyanophenyl)-2-phenylacetamide] | bind to the protein specifically | do not compete for the same binding site on the protein |  |
| O=CCCc1ccccc1 [Compound 8D] |  |  | formation of specific complex with PTP1b [2]: formed specific complexes with PTP1b; IC50 [3]: did not have the ability to block function |
| O=c1cc(O)c1=O [moniliformin] |  |  | IC50 ([3]; read-out: IC50): 12 µM |
| COc1ccc(C(=O)NCc2ccccc2)cc1 [Ligand 7G] |  |  | competitive / non-competitive binder or non-binder [1]: competitive binders |
| c1ccc(-c2ccncc2)cc1 [Ligand 7B] |  |  | competitive / non-competitive binder or non-binder [1]: non-competitive binders |
| c1ccc(-c2ccncc2)cc1 [4-phenylpyridine] | specific; also recorded: bind to the protein specifically |  |  |
| CC(=O)NO [acetohydroxamic acid] | specific | do not compete for the same binding site on a protein |  |
| N#Cc1ccc(-c2ccc(O)cc2)cc1 [4-(4′-cyanophenyl)-phenol] | specific | do not compete for the same binding site on a protein |  |
| O=c1c(O)c(-c2ccccc2)c1=O [Compound 8A] |  |  | formation of specific complex with PTP1b [2]: formed specific complexes with PTP1b; Kd ([2]; read-out: binding constant (Kd)): 25 µM; IC50 ([3]; read-out: IC50): 60 µM |
